Assay results published in PMC4992173, “Divergent synthesis and identification of the cellular targets of deoxyelephantopins” (Nature Communications, 2016).

Target: T1, Protein HGH1 homolog (HGH1) (Homo sapiens, UniProt Q9BTY7)
T1 construct: 1,522 proteins were enriched from MCF7 cells by 10 μM probe 24c; endogenous in cells; host or cells: MCF7
Assay: In situ competitive profiling in live MCF7 cells (LFQ): HGH1
Format: cell-based
Settings: 4 h, then 10 µM 24c, n=4
Text: In our efforts to determine the direct molecular targets of deoxyelephantopin we first performed a gel-based competitive in situ proteomic profiling assay[41] […] While the greater conformational flexibility of probe 24c could potentially lead to more promiscuous target engagement relatively to deoxyelephantopin, it was favoured based on the fact that an alkyne moiety appended to the rigid scaffold of deoxyelephantopin may hinder some of its interactions. MCF7 cells were pretreated with various concentrations of deoxyelephantopin for 4 h, harvested, lysed and the lysates were treated with the fluorogenic probe 24c-Cy3 (10 μM; Supplementary Fig. 10). […] Furthermore, cells were pretreated with 20 μM concentration of deoxyelephantopin or 24c and the proteomic profiles were compared (Fig. 6b, Supplementary Fig. 11). Multiple bands were detected that were equally competed by both DEP and 24c, thus again confirming that 24c can be used as an acceptable clickable analogue of deoxyelephantopin in pulldown assays. Having established the optimal labelling conditions by SDS–PAGE, we next carried out a mass spectrometry-based competitive profiling assay[42] coupled with the method of stable isotope labelling of amino acids in culture (SILAC)[43]. […]
Figure 6 Proteome-wide identification of deoxyelephantopin targets. […] Quantification was performed using label-free quantification (LFQ) method (n=4). […]

T1 sequence (Q9BTY7 whole entry): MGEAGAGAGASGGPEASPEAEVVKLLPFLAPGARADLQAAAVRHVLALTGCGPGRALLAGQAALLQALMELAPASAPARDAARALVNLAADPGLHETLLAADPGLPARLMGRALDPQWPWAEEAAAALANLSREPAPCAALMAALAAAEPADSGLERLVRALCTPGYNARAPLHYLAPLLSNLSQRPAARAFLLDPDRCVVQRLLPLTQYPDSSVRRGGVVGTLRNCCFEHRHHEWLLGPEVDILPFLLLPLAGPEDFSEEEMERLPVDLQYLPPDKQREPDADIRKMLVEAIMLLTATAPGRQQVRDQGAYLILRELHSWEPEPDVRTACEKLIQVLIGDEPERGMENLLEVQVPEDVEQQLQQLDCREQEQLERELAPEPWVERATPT

C=C(C)C(=O)O[C@H]1CC2=C[C@@H](C/C(C)=C/[C@H]3OC(=O)C(=C)[C@H]13)OC2=O [deoxyelephantopin]
LFQ ratio 20 µM Deoxyelephantopin/DMSO with 24c: 0.00
